The target of test [1] is T1, human M2 receptor (Homo sapiens, UniProt P08172).
T1 sequence (P08172 1-466): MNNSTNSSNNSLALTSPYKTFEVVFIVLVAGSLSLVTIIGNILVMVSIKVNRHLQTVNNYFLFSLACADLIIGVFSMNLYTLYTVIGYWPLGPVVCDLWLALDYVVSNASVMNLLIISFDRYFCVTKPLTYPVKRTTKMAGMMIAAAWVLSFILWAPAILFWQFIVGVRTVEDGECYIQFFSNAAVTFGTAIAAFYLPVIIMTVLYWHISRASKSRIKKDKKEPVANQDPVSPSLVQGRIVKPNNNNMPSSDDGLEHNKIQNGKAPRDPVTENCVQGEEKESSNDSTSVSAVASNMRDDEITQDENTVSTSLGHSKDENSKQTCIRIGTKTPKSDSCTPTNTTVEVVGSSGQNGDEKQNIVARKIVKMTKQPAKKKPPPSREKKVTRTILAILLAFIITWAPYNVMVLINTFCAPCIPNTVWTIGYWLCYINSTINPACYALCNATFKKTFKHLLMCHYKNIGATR
It counts as cell-based. The settings on record: α >1 = positive cooperativity.

Test [2] concerns the target T1, human M2 receptor.
Description: Functional M2-GIRK1/4 Activation Test
The binding of orthosteric agonists (endogenous ligand: acetylcholine) to the M2 receptor leads to receptor activation or a change in conformation of the receptor in the manner of a shift in equilibrium in favour of the active receptor conformation.
The agonist-induced change in conformation of the M2 receptor results in a Gαi protein activation. […] Under physiological conditions, the result is then a selective efflux of potassium from the cell along the electrochemical gradient. […] The extent of hyperpolarization can therefore be regarded as a measure of the activation of the M2 receptor.
The test cell used is a recombinant CHO-DUKX cell line which has been stably transfected with cDNA coding for the human M2 receptor and with cDNA coding for both GIRK1/4 subunits (CHO-DUKX-M2-GIRK). The transmembrane potential, or the relative changes in the transmembrane potential as a function of substance addition or M2 activation, is determined by means of a voltage-sensitive dye (FLIPR Membrane Potential Assay Kit Blue, Molecular Devices # R8034) and the measurement of cell fluorescence using a proprietary fluorescence imaging instrument.
Determination of the Allosteric Potency of the Test Substances (EC50 Value)
The sowing medium consisted of MEM alpha medium (supplemented with 5% FCS, 2% Glutamax, no genticin).
For the particular measurement, the medium was removed and the cells were laden with the voltage-sensitive dye for at least 6 min at room temperature (30 μl of loading buffer per 384-well). This was followed, in a first measurement, by the determination of the fluorescence for the resting transmembrane potential for a period of 5 sec. Thereafter, 10 μl in each case of the test substances diluted in loading buffer were added, followed by a second measurement to determine the transmembrane potential for a period of 50 sec. Finally, the cells were admixed with 10 μl of agonist solution (acetylcholine dissolved in loading buffer). Acetylcholine was used at the concentration corresponding to the EC20, which had been determined in a preliminary test. The M2-mediated GIRK1/4 activation or hyperpolarization was then monitored in a third measurement over a period of 60 sec. The EC50 value (degree of allosteric potency of test compound) and the efficiency (measure of the boosting of the acetylcholine effect at an EC20 acetylcholine concentration) were determined with the aid of a 4-parameter logistic function (Hill function).
[3] abbreviates: shift in the acetylcholine dose-response curve (Allosteric EC50 shift, GraphPad PRISM).
The mark [4] stands for this setting: Receptor activity EC50, M2-GIRK1/4 activation test, acetylcholine at EC20, allosteric potency, in some cases mean values from two or more determinations.

The structures appear in SMILES notation. Like-named read-outs stand apart in the source and are kept apart here.

Broadly, the EC50 is the concentration that produces a half-maximal response. High values mean a need for much substance, low ones an effect from little substance. Consider `CCC(NC(=O)c1cn(-c2ccccc2F)c2nc(N(C)C)ccc2c1=O)C(F)(F)F` (racemic) [Example 204, rac-7-(Dimethylamino)-1-(2-fluorophenyl)-4-oxo-N-[1,1,1-trifluorobutan-2-yl]-1,4-dihydro-1,8-naphthyridine-3-carboxamide], for which the “Cooperativity (alpha factor)” value in test [1] (setting [3]) is on record as 8. This molecule registered an EC50 in test [2] (setting [4]) of 34 nM.

For `CC(NC(=O)c1cn(-c2ccc(F)cc2F)c2nc(N3C[C@@H](O)CC3=O)ccc2c1=O)c1c(F)cccc1F` (mixture of isomers) [Example 214, 1-(2,4-Difluorophenyl)-N-[1-(2,6-difluorophenyl)ethyl]-7-[(4S)-4-hydroxy-2-oxopyrrolidin-1-yl]-4-oxo-1,4-dihydro-1,8-naphthyridine-3-carboxamide], in test [1] (setting [3]), the “Cooperativity (alpha factor)” value stood at 43. This molecule also registered an EC50 in test [2] (setting [4]) of 107 nM.

With `CC[C@@H](NC(=O)c1cn(-c2c(F)cccc2Cl)c2nc(N3C[C@@H](O)CC3=O)ccc2c1=O)C(F)(F)F` [Example 307, 1-(2-Chloro-6-fluorophenyl)-7-[(4S)-4-hydroxy-2-oxopyrrolidin-1-yl]-4-oxo-N-[(2R)-1,1,1-trifluorobutan-2-yl]-1,4-dihydro-1,8-naphthyridine-3-carboxamide], the “Cooperativity (alpha factor)” value in test [1] (setting [3]) stood at 36. Also, in test [2] (setting [4]), the response was half-maximal at 14 nM (EC50).

As for `CC[C@@H](NC(=O)c1cn(-c2ccc(F)cc2F)c2nc(N3CCC(C)(OC)C3=O)ccc2c1=O)C(F)(F)F` (single isomer, unassigned) [Example 199], in test [1] (setting [3]), the “Cooperativity (alpha factor)” value is 15. For the same molecule, a half-maximal effect in test [2] (setting [4]) (EC50) was put at 263 nM.

As to `CC(NC(=O)c1cn(-c2ccc(F)cc2F)c2nc(NCC(F)F)ccc2c1=O)C(F)(F)F` (racemic) [Example 121, rac-7-[(2,2-Difluoroethyl)amino]-1-(2,4-difluorophenyl)-4-oxo-N-[1,1,1-trifluoropropan-2-yl]-1,4-dihydro-1,8-naphthyridine-3-carboxamide], in test [1] (setting [3]), the “Cooperativity (alpha factor)” value was found to be 8. A half-maximal effect in test [2] (setting [4]) (EC50) was put at 295 nM.

As to `O=C(NC(C1CC1)C(F)(F)F)c1cn(-c2ccccc2Cl)c2nc(N3C[C@@H](O)CC3=O)ccc2c1=O` (mixture of isomers) [Example 279, 1-(2-Chlorophenyl)-N-[1-cyclopropyl-2,2,2-trifluoroethyl]-7-[(4S)-4-hydroxy-2-oxopyrrolidin-1-yl]-4-oxo-1,4-dihydro-1,8-naphthyridine-3-carboxamide], the “Cooperativity (alpha factor)” value in test [1] (setting [3]) is given as 34. The EC50 in test [2] (setting [4]) amounted to 66 nM.

Consider `CC[C@@H](NC(=O)c1cn(-c2ccc(F)cc2F)c2nc(N3CCC(C)(O)C3=O)ccc2c1=O)C(F)(F)F` (mixture of isomers) [Example 194, 1-(2,4-Difluorophenyl)-7-[3-hydroxy-3-methyl-2-oxopyrrolidin-1-yl]-4-oxo-N-[(2R)-1,1,1-trifluorobutan-2-yl]-1,4-dihydro-1,8-naphthyridine-3-carboxamide], for which the “Cooperativity (alpha factor)” value in test [1] (setting [3]) came to 16. The molecule further gave an EC50 in test [2] (setting [4]) of 140 nM.

As for `CC(COC(F)(F)F)NC(=O)c1cn(-c2ccc(F)cc2F)c2nc(N3CC[C@H](F)C3)ccc2c1=O` (single isomer, unassigned) [Example 228], in test [1] (setting [3]), the “Cooperativity (alpha factor)” value is listed as 12. The EC50 in test [2] (setting [4]) came to 51 nM.

As to `CC[C@H](NC(=O)c1cn(-c2c(F)cc(F)cc2F)c2nc(N3CC(O)C4(CC4)C3)ccc2c1=O)C(F)(F)F` (single isomer, unassigned) [Example 621], the “Cooperativity (alpha factor)” value in test [1] (shift of acetylcholine dose-response curve (Allosteric EC50 shift)) amounted to 44. For the same molecule, in test [2] (Receptor activity EC50, allosteric potency at EC20 acetylcholine, M2-GIRK1/4 reporter cells, in some cases mean of two or more determinations), a half-maximal response (EC50) required 10 nM. Moreover, the Efficiency in test [2] (boosting of the acetylcholine effect at EC20 acetylcholine concentration, M2-GIRK1/4 reporter cells) is reported as 100.0%.

In the case of `O=C(NC(c1cccc(F)c1)C(F)(F)F)c1cn(-c2ccc(F)cc2F)c2nc(N3C[C@@H](O)CC3=O)ccc2c1=O` (mixture of isomers) [Example 272, 1-(2,4-Difluorophenyl)-7-[(4S)-4-hydroxy-2-oxopyrrolidin-1-yl]-4-oxo-N-[2,2,2-trifluoro-1-(3-fluorophenyl)ethyl]-1,4-dihydro-1,8-naphthyridine-3-carboxamide], the “Cooperativity (alpha factor)” value in test [1] (setting [3]) is given as 55. In addition, the EC50 in test [2] (setting [4]) is 33 nM.
